According to PubChem BioAssay AID1259407 (Chemical Carcinogenesis Research Information System (CCRIS), 2018):
Activity calls are given as the source filed them. The rule behind the calls is not given here.

Test system: CCRIS mutagenicity, Ames/micronucleus/aberration tests
Assay: CCRIS mutagenicity studies
Details: Test System: AMES SALMONELLA TYPHIMURIUM

Measured: mutagenic call

c1ccc(-c2cccnc2)nc1
active: Strain/Indicator: TA97, Metabolic Activation: RAT, LIVER, S-9, PHENOBARBITAL, Method: STANDARD PLATE active; positive | Strain/Indicator: TA97, Metabolic Activation: RAT, LIVER, S-9, SODIUM PHENOBARBITAL, Method: PREINCUBATION active; positive | Strain/Indicator: TA100, Metabolic Activation: RAT, LIVER, S-9, SODIUM PHENOBARBITAL, Method: PREINCUBATION active; positive | Strain/Indicator: TA1537, Metabolic Activation: RAT, LIVER, S-9, PHENOBARBITAL, Method: STANDARD PLATE active; positive
inactive: Strain/Indicator: TA98, Metabolic Activation: RAT, LIVER, S-9, PHENOBARBITAL, Method: STANDARD PLATE inactive; negative | Strain/Indicator: TA100, Metabolic Activation: RAT, LIVER, S-9, PHENOBARBITAL, Method: STANDARD PLATE inactive; negative | Strain/Indicator: TA1535, Metabolic Activation: RAT, LIVER, S-9, PHENOBARBITAL, Method: STANDARD PLATE inactive; negative | Strain/Indicator: TA1538, Metabolic Activation: RAT, LIVER, S-9, PHENOBARBITAL, Method: STANDARD PLATE inactive; negative

Nc1nc(N)c2nc(-c3ccccc3)c(N)nc2n1
inactive: Strain/Indicator: TA98, Metabolic Activation: HAMSTER, LIVER, S-9, AROCLOR 1254 (10%), Method: PREINCUBATION inactive; negative | Strain/Indicator: TA98, Metabolic Activation: NONE, Method: PREINCUBATION inactive; negative | Strain/Indicator: TA98, Metabolic Activation: RAT, LIVER, S-9, AROCLOR 1254 (10%), Method: PREINCUBATION inactive; negative | Strain/Indicator: TA100, Metabolic Activation: HAMSTER, LIVER, S-9, AROCLOR 1254 (10%), Method: PREINCUBATION inactive; negative | Strain/Indicator: TA100, Metabolic Activation: NONE, Method: PREINCUBATION inactive; negative | Strain/Indicator: TA100, Metabolic Activation: RAT, LIVER, S-9, AROCLOR 1254 (10%), Method: PREINCUBATION inactive; negative | Strain/Indicator: TA1535, Metabolic Activation: HAMSTER, LIVER, S-9, AROCLOR 1254 (10%), Method: PREINCUBATION inactive; negative | Strain/Indicator: TA1535, Metabolic Activation: NONE, Method: PREINCUBATION inactive; negative | Strain/Indicator: TA1535, Metabolic Activation: RAT, LIVER, S-9, AROCLOR 1254 (10%), Method: PREINCUBATION inactive; negative | Strain/Indicator: TA1537, Metabolic Activation: HAMSTER, LIVER, S-9, AROCLOR 1254 (10%), Method: PREINCUBATION inactive; negative | Strain/Indicator: TA1537, Metabolic Activation: NONE, Method: PREINCUBATION inactive; negative | Strain/Indicator: TA1537, Metabolic Activation: RAT, LIVER, S-9, AROCLOR 1254 (10%), Method: PREINCUBATION inactive; negative
